27 molecules from patent US9221807B2, “Substituted pyridones and pyrazinones and their use as inhibitors of neutrophil elastase activity” (Boehringer Ingelheim International GmbH, priority 2014, dated 2015) can be followed below.

The target in this experiment is T1, Human neutrophil elastase (Homo sapiens, UniProt P08246).
T1 construct: purchased Calbiochem 324681
T1 sequence (P08246 30-267): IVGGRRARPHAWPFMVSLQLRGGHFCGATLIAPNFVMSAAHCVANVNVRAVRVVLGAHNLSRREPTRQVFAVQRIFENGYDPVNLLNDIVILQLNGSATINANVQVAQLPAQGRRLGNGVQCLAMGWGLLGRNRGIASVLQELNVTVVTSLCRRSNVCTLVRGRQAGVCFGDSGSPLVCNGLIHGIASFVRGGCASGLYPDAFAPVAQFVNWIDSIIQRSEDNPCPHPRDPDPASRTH
As to the kind of experiment: Human Neutrophil Elastase Assay. Type of experiment: biochemical. Conditions: substrate MeOSuc-Ala-Ala-Pro-Val-AMC 250 μM, pH 7.5, fluorescence. Here is the method: Human Neutrophil Elastase Assay
Materials: Human neutrophil elastase was purchased from Calbiochem (Cat. No.: 324681) and the elastase substrate MeOSuc-Ala-Ala-Pro-Val-AMC from Bachem (Cat. No.: 1-1270). All other materials were of the highest grade commercially available. The following buffers were used: Compound buffer: 100 mM Tris, 500 mM NaCl, adjusted to pH 7.5; Assay buffer: 100 mM Tris, 500 mM NaCl, adjusted to pH 7.5, containing 0.01% BSA. Assay conditions: Test compounds were prediluted in DMSO and subsequently in compound buffer (5% DMSO final). 5 μL of these compound dilutions were mixed with 10 μl Neutrophil elastase (9 ng/ml in assay buffer) in a black 384 well OptiPlate (Perkin Elmer, Cat No.: 6007270) and incubated for 15 min at room temperature. Subsequently 10 μL substrate solution in assay buffer were added (250 μM final concentration) and the plates were incubated for 60 min at room temperature. After inactivation of the enzyme, fluorescence intensities were measured at 380 nm excitation and 460 nm emission wavelengths. Each plate contains wells with a high value control (DMSO+enzyme+substrate) and wells with a low value control (DMSO+inactivated enzyme+substrate). IC50 values were estimated using a sigmoidal concentration response curve with variable slope. Means of low values were taken as 0%, means of high values as 100%.
For orientation: IC50 means the concentration at which inhibition is half-maximal. With `CN=S(C)(=N)c1ccc(CNC(=O)c2cc(-c3ccnn3C)c(C)n(-c3cccc(C(F)(F)F)c3)c2=O)cc1` (stereo not drawn) [Example 15.1], the IC50 was 88.7 nM.

Take `Cc1c(-c2ccnn2C)cc(C(=O)NCc2ccc(S(C)(=O)=NS(C)(=O)=O)cc2)c(=O)n1-c1cccc(C(F)(F)F)c1` (stereo not drawn) [Example 9.3]: inhibition was half-maximal at 12.6 nM (IC50). This IC50 lies about 7-fold lower than the previous one.

Molecule `Cc1c(-c2ccnn2C)cc(C(=O)NCc2ccc(S(C)(=O)=NC(=O)N3CCOCC3)cc2)c(=O)n1-c1cccc(C(F)(F)F)c1` (stereo not drawn) [Example 9.2] yielded an IC50 of 72.7 nM.

In the case of `Cc1c(-c2ccnn2C)cc(C(=O)NCc2ccc(S(C)(=N)=N)cc2)c(=O)n1-c1cccc(C(F)(F)F)c1` [Example 14, 6-Methyl-5-(2-methylpyrazol-3-yl)-N-[[4-(methylsulfonodiimidoyl)phenyl]methyl]-2-oxo-1-[3-(trifluoromethyl)phenyl]pyridine-3-carboxamide], the IC50 was determined as 261 nM.

The molecule `CN=S(=O)(c1ccc(CNC(=O)c2cc(-c3ccnn3C)c(C)n(-c3cccc(C(F)(F)F)c3)c2=O)cc1)N(C)OC` (stereo not drawn) [Example 1.3] returned a half-inhibitory concentration (IC50) of 12.5 nM.

Consider `Cc1c(-c2ccnn2C)nc(C(=O)NCc2ccc(S(C)(=O)=NC#N)cc2)c(=O)n1-c1cccc(C(F)(F)F)c1` (single isomer, unassigned) [Example 16, N-[[4-(N-Cyano-S-methyl-sulfonimidoyl)phenyl]methyl]-5-methyl-6-(2-methylpyrazol-3-yl)-3-oxo-4-[3-(trifluoromethyl)phenyl]pyrazine-2-carboxamide], for which 11.1 nM corresponded to half-maximal inhibition (IC50).

In turn, `CN=S(C)(=O)c1ccc(CNC(=O)c2cc(-c3ccnn3C)c(C)n(-c3cccc(C(F)(F)F)c3)c2=O)cc1` (stereo not drawn) [Example 11, N-[[4-(N,S-Dimethylsulfonimidoyl)phenyl]methyl]-6-methyl-5-(2-methylpyrazol-3-yl)-2-oxo-1-[3-(trifluoromethyl)phenyl]pyridine-3-carboxamide] had a concentration for half-maximal inhibition (IC50) of 40.3 nM. Against the preceding molecule, the IC50 is about 3.6-fold higher.

In turn, `Cc1c(-c2ccnn2C)cc(C(=O)NCc2ccc(/S(C)=N/C#N)cc2)c(=O)n1-c1cccc(C(F)(F)F)c1` (stereo not drawn) [Example 1, N-[[4-(N-Cyano-S-methyl-sulfinimidoyl)phenyl]methyl]-6-methyl-5-(2-methyl-pyrazol-3-yl)-2-oxo-1-[3-(trifluoromethyl)phenyl]pyridine-3-carboxamide] registered a half-maximal inhibitory concentration (IC50) of 1.2 nM.

Molecule `CNC(=O)N=S(C)(=O)c1ccc(CNC(=O)c2cc(-c3ccnn3C)c(C)n(-c3cccc(C(F)(F)F)c3)c2=O)cc1` (stereo not drawn) [Example 10, 6-Methyl-N-[[4-[S-methyl-N-(methylcarbamoyl)sulfonimidoyl]phenyl]methyl]-5-(2-methylpyrazol-3-yl)-2-oxo-1-[3-(trifluoromethyl)phenyl]pyridine-3-carboxamide] gave a 50% inhibitory concentration (IC50) of 50 nM.

As for `Cc1c(-c2ccnn2C)cc(C(=O)NCc2ccc(S(C)(=O)=NC(N)=O)cc2)c(=O)n1-c1cccc(C(F)(F)F)c1` (stereo not drawn) [Example 6, N-[[4-(N-Carbamoyl-S-methyl-sulfonimidoyl)phenyl]methyl]-6-methyl-5-(2-methyl-pyrazol-3-yl)-2-oxo-1-[3-(trifluoromethyl)phenyl]pyridine-3-carboxamide], the IC50 was 45.8 nM.

In turn, `COC(=O)N=S(C)(=O)c1ccc(CNC(=O)c2cc(-c3ccnn3C)c(C)n(-c3cccc(C(F)(F)F)c3)c2=O)cc1` (stereo not drawn) [Example 9, Methyl N-[Methyl-[4-[[[6-methyl-5-(2-methylpyrazol-3-yl)-2-oxo-1-[3-(trifluoromethyl)phenyl]pyridine-3-carbonyl]amino]methyl]phenyl]-oxo-λ^6-sulfanylidene]-carbamate] gave a concentration for half-maximal inhibition (IC50) of 17.6 nM. This IC50 lies about 2.6-fold lower than the previous one.

Molecule `CN=S(=O)(c1ccc(CNC(=O)c2cc(-c3ccnn3C)c(C)n(-c3cccc(C(F)(F)F)c3)c2=O)cc1)N1CCCCC1` (stereo not drawn) [Example 13, 6-Methyl-N-[[4-[N-methyl-S-(1-piperidyl)sulfonimidoyl]phenyl]methyl]-5-(2-methyl-pyrazol-3-yl)-2-oxo-1-[3-(trifluoromethyl)phenyl]pyridine-3-carboxamide] displayed a half-inhibitory concentration (IC50) of 28.4 nM.

On to `Cc1c(-c2ccnn2-c2ccc(C#N)cc2)nc(C(=O)NCc2ccc(S(C)(=O)=NC#N)cc2)c(=O)n1-c1cccc(C(F)(F)F)c1` (single isomer, unassigned) [Example 17, N-[[4-(N-Cyano-S-methyl-sulfonimidoyl)phenyl]methyl]-6-[2-(4-cyanophenyl)pyrazol-3-yl]-5-methyl-3-oxo-4-[3-(trifluoromethyl)phenyl]pyrazine-2-carboxamide], for which the 50% inhibitory concentration (IC50) is less than 1 nM.

In turn, `Cc1c(-c2ccnn2C)cc(C(=O)NCc2ccc(S(C)(=O)=NC#N)cc2)c(=O)n1-c1cccc(C(F)(F)F)c1` (single isomer, unassigned) [Example 3B] showed a half-inhibitory concentration (IC50) of 2.3 nM. This lies in the single-digit nanomolar range.

`Cc1c(-c2ccnn2C)cc(C(=O)NCc2ccc(/S(C)=N/C(N)=O)cc2)c(=O)n1-c1cccc(C(F)(F)F)c1` (stereo not drawn) [Example 5, N-[[4-(N-Carbamoyl-S-methyl-sulfinimidoyl)phenyl]methyl]-6-methyl-5-(2-methyl-pyrazol-3-yl)-2-oxo-1-[3-(trifluoromethyl)phenyl]pyridine-3-carboxamide] registered an IC50 of 35.7 nM.

Molecule `CN=S(=O)(c1ccc(CNC(=O)c2cc(-c3ccnn3C)c(C)n(-c3cccc(C(F)(F)F)c3)c2=O)cc1)N(C)C` (stereo not drawn) [Example 1.1] yielded a half-maximal inhibitory concentration (IC50) of 11.4 nM.

The molecule `CC(=O)N=S(C)(=O)c1ccc(CNC(=O)c2cc(-c3ccnn3C)c(C)n(-c3cccc(C(F)(F)F)c3)c2=O)cc1` (stereo not drawn) [Example 9.1] came in with an IC50 of 37 nM.

Turning to `Cc1c(-c2ccnn2C)cc(C(=O)NCc2ccc(S(C)(=O)=NC#N)cc2)c(=O)n1-c1cccc(C(F)(F)F)c1` (racemic) [Example 3, N-[[4-(N-Cyano-S-methyl-sulfonimidoyl)phenyl]methyl]-6-methyl-5-(2-methylpyrazol-3-yl)-2-oxo-1-[3-(trifluoromethyl)phenyl]pyridine-3-carboxamide], inhibition was half-maximal at 2.6 nM (IC50).

As to `COCCN=S(C)(=N)c1ccc(CNC(=O)c2cc(-c3ccnn3C)c(C)n(-c3cccc(C(F)(F)F)c3)c2=O)cc1` (stereo not drawn) [Example 15, N-[[4-[N-(2-Methoxyethyl)-S-methyl-sulfonodiimidoyl]phenyl]methyl]-6-methyl-5-(2-methylpyrazol-3-yl)-2-oxo-1-[3-(trifluoromethyl)phenyl]pyridine-3-carboxamide], 43.5 nM corresponded to half-maximal inhibition (IC50).

As to `Cc1c(-c2ccnn2C)cc(C(=O)NCc2ccc(S(C)(=O)=N/C(N)=N/O)cc2)c(=O)n1-c1cccc(C(F)(F)F)c1` (stereo not drawn) [Example 8, N-[[4-[N—[N-Hydroxycarbamimidoyl]-S-methyl-sulfonimidoyl]phenyl]methyl]-6-methyl-5-(2-methylpyrazol-3-yl)-2-oxo-1-[3-(trifluoromethyl)phenyl]pyridine-3-carboxamide], the IC50 is 64.4 nM.

For the molecule `Cc1c(-c2ccnn2C)cc(C(=O)NCc2ccc(S(C)(=N)=O)cc2)c(=O)n1-c1cccc(C(F)(F)F)c1` (single isomer, unassigned) [Example 4B], the IC50 stood at 41.5 nM. This IC50 lies about 1.6-fold lower than the previous one.

`Cc1c(-c2ccnn2C)cc(C(=O)NCc2ccc(S(C)(=O)=NC#N)cc2)c(=O)n1-c1cccc(C(F)(F)F)c1` (single isomer, unassigned) [Example 3A] yielded an IC50 of 4.5 nM.

In turn, `Cc1c(-c2ccnn2C)cc(C(=O)NCc2ccc(S(C)(=N)=O)cc2)c(=O)n1-c1cccc(C(F)(F)F)c1` (racemic) [Example 4, 6-Methyl-5-(2-methylpyrazol-3-yl)-N-[[4-(methylsulfonimidoyl)phenyl]methyl]-2-oxo-1-[3-(trifluoromethyl)phenyl]pyridine-3-carboxamide] came in with an IC50 of 173 nM. This IC50 is about 38-fold higher than that of the molecule before.

The molecule `Cc1c(-c2ccnn2C)cc(C(=O)NCc2ccc(S(C)=N)cc2)c(=O)n1-c1cccc(C(F)(F)F)c1` (stereo not drawn) [Example 2, 6-Methyl-5-(2-methylpyrazol-3-yl)-N-[[4-(methylsulfinimidoyl)phenyl]methyl]-2-oxo-1-[3-(trifluoromethyl)phenyl]pyridine-3-carboxamide] gave an IC50 of 42 nM.

For `Cc1c(-c2ccnn2C)cc(C(=O)NCc2ccc(S(C)(=N)=O)cc2)c(=O)n1-c1cccc(C(F)(F)F)c1` (single isomer, unassigned) [Example 4A], the half-maximal inhibitory concentration (IC50) stood at 93.9 nM.

Take `Cc1c(-c2ccnn2C)cc(C(=O)NCc2ccc(S(C)(=N)=NC#N)cc2)c(=O)n1-c1cccc(C(F)(F)F)c1` (stereo not drawn) [Example 15.2]: the IC50 turned out to be 6.7 nM.

`Cc1nc(N=S(C)(=O)c2ccc(CNC(=O)c3cc(-c4ccnn4C)c(C)n(-c4cccc(C(F)(F)F)c4)c3=O)cc2)oc1C` (stereo not drawn) [Example 7, N-[[4-[N-(4,5-Dimethyloxazol-2-yl)-S-methyl-sulfonimidoyl]phenyl]methyl]-6-methyl-5-(2-methylpyrazol-3-yl)-2-oxo-1-[3-(trifluoromethyl)phenyl]pyridine-3-carboxamide]: half-maximal inhibition (IC50) required 34.3 nM.
